From patent US9528114B2, “Method for amplifying locus in bacterial cell” (DANISCO US INC., priority 2008, dated 2016)

Key:
BG3594, pDALsub1 = assay: Sensitivity to β-chloro-D-alanine of strain carrying alr-expressing plasmid, LB agar plates; type: cell-based, Bacillus subtilis; parameters: key to Resistance (growth) on LB agar plate: +: growth; −: no growth; conditions: for Resistance (growth) on LB agar plate: strain BG3594, pDALsub1
Procedure: (§1) In a first phase, the concentration of β-chloro-D-alanine (CDA) necessary to inhibit growth of B. subtilis was determined by plating dilutions of LB-grown strain BG3594 on LB agar plates containing different concentrations of CDA. […] Other alanine racemase inhibitors, such as cycloserine, could be used instead of CDA.

Bacillus subtilis BG3594 = assay: Sensitivity threshold to β-chloro-D-alanine, dilutions plated on LB agar plates; type: cell-based; parameters: key to Resistance (growth) on LB agar plate: +: growth; −: no growth; conditions: for Resistance (growth) on LB agar plate: strain BG3594; for Growth of BG3594 in presence of CDA: LB agar
Procedure: as §1

In the case of `N[C@H](CCl)C(=O)O` [CDA, β-chloro-D-alanine], the “Resistance (growth) on LB agar plate” value (BG3594, pDALsub1; CDA 20 mg/L) is reported as “+”, the “Resistance (growth) on LB agar plate” value (BG3594, pDALsub1; CDA 50 mg/L) is reported as “+” and the “Resistance (growth) on LB agar plate” value (BG3594, pDALsub1; CDA 100 mg/L) is reported as “+”. The “Growth of BG3594 with alr-expressing plasmid in presence of CDA” value (BG3594, pDALsub1; all CDA concentrations tested (up to 100 mg/L), LB agar) was “allows growth”, the “Resistance (growth) on LB agar plate” value (Bacillus subtilis BG3594; CDA 20 mg/L) was “+” and the “Resistance (growth) on LB agar plate” value (Bacillus subtilis BG3594; CDA 50 mg/L) was “−**”. For the same compound, the “Resistance (growth) on LB agar plate” value (Bacillus subtilis BG3594; CDA 100 mg/L) was “−”, the “Growth of BG3594 in presence of CDA” value (Bacillus subtilis BG3594; concentration of 20 mg/L) was “can still grow” and the “Growth of BG3594 in presence of CDA” value (Bacillus subtilis BG3594; concentration of 50 mg/L) was “totally inhibited”.
